{"source": "paper PMC9258321", "about": "“Structure-guided design of CPPC-paired disulfide-rich peptide libraries for ligand and drug discovery” (Chemical Science, 2022)", "key": {"[1]": {"experiment": "Circular dichroism (CD) thermal denaturation", "format": "physicochemical", "conditions": "CD 190-260 nm, 61 μM in pure water, scans at 25, 45, 75 and 95 °C; only a small decline of CD signals up to 95 °C; Fig. S7", "from_the_text": "(§1) from 2% agarose gel (containing 0.005% v/v of 4S Red Plus Nucleic Acid Stain) used a commercial agarose gel purification kit (E.Z.N.A® Gel Extraction Kit, OMEGA BIO-TEK, USA). Then, Novogene Co., Ltd. was commissioned for sequence identification. The data were processed and analyzed using […]\nAll peptides were synthesized on a CEM Liberty Blue automated microwave peptide synthesizer by standard Fmoc solid-phase chemistry on a Rink Amide MBHA resin (0.025 mmol scale). Coupling reac-tions were performed with a Fmoc-AA-OH (5 eq., 0.2 M solution in DMF), DIC (5 eq., 0.25 M solution in DMF) and Oxyma Pure (5 eq., 1.0 M solution in DMF). Fmoc groups were removed using a 20% (v/v) solution of piperidine in DMF. […]\n(§2) In a typical experiment, reduced peptide (50 μM) was dissolved in 100 mM phosphate buffer (500 μL, pH 7.4) containing 6 M Gu·HCl, 0.5 mM GSSG and 10% DMSO (v/v). […] After analyzed by MALDI-TOF MS, the oxidized peptide was purified and lyophilized to yield […]\n(§3) Circular dichroism (CD) wavelength and temperature scans were recorded for thermal denaturation experiments. […] Wavelength scans from 190 nm to 260 nm were recorded at 25℃, 45℃, 75℃ and 95℃, and temperature were carried out at a heating rate of 5℃/min in 1 mm path length cuvettes.\n(§4) Fluorescence polarization (FP) assay\n(§5) (a) Fluorescence polarization binding assay. […]"}, "CD28": {"molecular_target": "T1, CD28 (Homo sapiens, UniProt P10747)", "T1 construct": "purchased Sino Biological 11524-HCCH", "T1 sequence (P10747 19-220)": "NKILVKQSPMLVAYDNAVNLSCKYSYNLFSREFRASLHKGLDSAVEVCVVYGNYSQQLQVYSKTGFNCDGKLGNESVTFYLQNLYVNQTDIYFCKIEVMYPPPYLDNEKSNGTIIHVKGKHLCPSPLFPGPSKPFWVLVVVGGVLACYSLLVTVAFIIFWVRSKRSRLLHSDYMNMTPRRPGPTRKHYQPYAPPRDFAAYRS", "experiment": "Fluorescence polarization binding assay (saturation binding of FITC-drp8 to CD28)", "conditions": "FP assay, same way as for oxidized FITC-drp8", "from_the_text": "as §1\nAll peptides were synthesized on a CEM Liberty Blue automated microwave peptide synthesizer by standard Fmoc solid-phase chemistry on a Rink Amide MBHA resin (0.025 mmol scale). Coupling reac-tions were performed with a Fmoc-AA-OH (5 eq., 0.2 M solution in DMF), DIC (5 eq., 0.25 M solution in DMF) and Oxyma Pure (5 eq., 1.0 M solution in DMF). […]\nas §2, §3, §4, §5\nmin incubation at room temperature, the fluorescence anisotropies were measured using a plate reader (Eex= 485 nm, Eem=535 nm). […]"}, "MDM2": {"test_system": "MDM2", "experiment": "Fluorescence polarization (FP) competition assay, binding to MDM2", "conditions": "FP competition assay described previously (ref 32 method); oxidized products; Fig. S3", "from_the_text": "The most abundantly enriched sequences from both selections were then synthesized, and their oxidative folding in redox buffers were examined using HPLC. Oxidation of the MDM2-binding peptide (drp2) yields two products (drp2-a and drp2-b) in a ratio of ∼1 : 3 (Fig. 2c). […] The structures of the two products were then characterized using NMR (Fig. 2c; PDB 7W8O and 7W8R). Both products can maintain a stable, but different 3D structure with a conserved α-helix responsible for target recognition, corresponding to the parallel and antiparallel dimeric pairing of the two CPPC motifs in the peptide (drp2-a and drp2-b, respectively). […]\nmin incubation at room temperature, the fluorescence anisotropies were measured using a plate reader (Eex= 485 nm, Eem=535 nm). All of the measurements were recorded in triplicate. In the fluorescence polarization assay s measuring the binding of reduced FITC-drp8 to CD28 and the binding of oxidized FITC-drp8 to CTLA-4, the fluorescence anisotrop ies were recorded in the same way as described above.\nDissociation constants ( KD) were determined by nonlinear regression analysis of anisotrop ies versus the concentrations of the protein using the following equation: […]\n(b) Competition fluorescence polarization assay. The binding of drp8 to CD28 was measured by adding dilutions of drp8 to premixed oxidized FITC-drp8 and CD28 in PBS (pH 7.4). […]"}, "Keap1": {"molecular_target": "T2, Keap1 (Homo sapiens, UniProt Q14145)", "T2 construct": "another target (the Kelch domain of Keap1)", "T2 sequence (Q14145 321-609 limits assumed, species assumed)": "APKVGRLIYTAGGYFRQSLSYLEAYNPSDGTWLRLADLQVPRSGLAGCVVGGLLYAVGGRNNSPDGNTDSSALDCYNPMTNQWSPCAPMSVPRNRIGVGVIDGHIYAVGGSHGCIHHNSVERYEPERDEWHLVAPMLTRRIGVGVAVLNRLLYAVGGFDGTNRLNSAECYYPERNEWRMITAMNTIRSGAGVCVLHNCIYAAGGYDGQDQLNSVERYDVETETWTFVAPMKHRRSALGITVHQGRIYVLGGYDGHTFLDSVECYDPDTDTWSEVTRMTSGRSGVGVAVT", "experiment": "Surface plasmon resonance (SPR) assay, affinity of peptides to Keap1", "format": "binding", "conditions": "Biacore T200, 25 °C, biotinylated Keap1 on CAP chip, peptide 25-1600 nM, flow 30 μL/min, multi-cycle affinity method, oxidized, HPLC-purified peptide, read-out: equilibrium dissociation constant (KD) toward Keap1", "description": "Surface plasmon resonance (SPR) assay\nThe affinity of peptides to Keap1 was measured using Biacore T200 (GE healthcare) at 25℃. At first, Keap1 was linked to a Biacore CAP chip via the interaction of biotin and avidin (Biotinylation of Keap1 occurs through the preceding reaction, Biacore CAP chip was performed through a Biotin CAPture Kit (GE healthcare)). Then, different concentrations of peptides were used in experiment (25, 50, 100, 200, 400, 800, 1600 nM) at a flow rate of 30 μL/min. The binding affinity and kinetics constants were quanti-fied by a multi-cycle affinity method.\nNMR samples were dissolved in 80% perdeuterated acetonitrile and 20% H2O for drp1, 75% perdeu-terated acetonitrile and […] for drp2-a, 60% perdeuterated acetonitrile and 40% H2O for drp8, 50% perdeuterated acetonitrile and 50% H2O for drp3 and drp6, 40% perdeuterated acetonitrile and 60% H2O for drp2-b and drp4 (The solution conditions depend on the dispersion of cross -peaks). All of NMR samples were prepared in a final concentration of about 1 mM. […] Two dimensional (2D) 1H, 15N/13C HSQC spectra were recorded to obtain chemical shifts of heavy atoms in backbone and side-chains. […]\nThe backbone dihedral angle restraints were obtained using programs TALOS -N based on chemical shifts of backbone resonances6. […] The structures were visualized in PyMol, and the quality of structures was analyzed using PROCHECK 9. […]"}}, "note": "Bridge positions count the residues as written; N and C are the ends. Square brackets hold non-standard residues; d marks the D form. Peptide text beside a SMILES is read from it. * marks the point of attachment. FITC = O=C1OC2(c3ccc(O)cc3Oc3cc(O)ccc32)c2ccc(NC(=S)*)cc21; βAla = NCCC(=O)O"}
{"compound": "H-SCPPCHGRPTCTKPGDNATPEKLAKYQACWELLTCPPC-OH (also: bicyclic or more (positions not given here)) [drp4, drp1 grafted with loop-α-helix fold of PPα-Tyr; recombinantly produced in E. coli as SUMO fusion]", "values": [{"measurement": "thermal stability of the 3D structure (CD signal)", "setting": "[1]", "result": "extremely stable to thermal treatment"}]}
{"compound": "{FITC}-[βAla]GCPPCPREHELVAVPCEGLNNCWFVEACPPC-NH2 (cysteine pairing not given here) [reduced drp8, reduced form of fluorescein-labeled drp8]", "values": [{"measurement": "binding of reduced labeled peptide to CD28 (in words)", "setting": "CD28", "result": "negligible"}]}
{"compound": "H-GCPPCESCHSGESTFWCYWEALCPPC-NH2 (also: bicyclic or more (positions not given here)) [drp2-a, oxidized product of drp2]", "values": [{"measurement": "affinity to MDM2 (in words)", "setting": "MDM2", "result": "subnanomolar affinity"}]}
{"compound": "CC[C@H](C)[C@@H]1NC(=O)[C@H](CCC(=O)O)NC(=O)[C@@H]2CSSC[C@H](NC(=O)[C@H](CO)NC(=O)[C@H](CO)NC(=O)[C@H](C(C)C)NC(=O)[C@H](CCC(=O)O)NC(=O)[C@H](CCSC)NC(=O)[C@@H]3CSSC[C@H](NC(=O)[C@H](CCCNC(=N)N)NC(=O)[C@H](CO)NC(=O)CNC1=O)C(=O)N1CCC[C@H]1C(=O)N1CCC[C@H]1C(=O)N[C@H](C(N)=O)CSSC[C@H](NC(=O)[C@@H](N)Cc1c[nH]c4ccccc14)C(=O)N1CCC[C@H]1C(=O)N1CCC[C@H]1C(=O)N3)C(=O)N[C@@H](CC(=O)O)C(=O)N[C@@H](CCC(=O)O)C(=O)N[C@@H](CCC(=O)O)C(=O)N[C@@H]([C@@H](C)O)C(=O)NCC(=O)N[C@@H](CCC(=O)O)C(=O)N2", "note": "[drp6] (H-WCPPCMEVSSCDEETGECEIGSRCPPC-NH2; disulfide 2-27, 5-24, 11-18)", "values": [{"measurement": "Kd", "setting": "Keap1", "result": 47, "unit": "nM"}]}
